Data on 6 molecules can be found in patent US20230181638A1, “IMMUNOGENIC PEPTIDES WITH NEW OXIDOREDUCTASE MOTIFS” (IMCYSE SA, priority 2020, published 2023).

Where a SMILES comes first, the peptide text is derived from it. Where no end group is shown, it is not given here.

The test system of data set [1] is Experimental Auto-Immune Encephalomyelitis (EAE). In words: prophylactic administration, EAE clinical score in mice. It is filed as in vivo, C57BL/6 mice. Conditions: vs Alum control group, FIG. 2C, FIG. 4.
For data set [2] the test system is unchanged. In words: therapeutic administration, EAE clinical score in mice. It is filed as in vivo. To be noted: for mice died: therapeutic EAE study, 16 mice per group, deaths did not appear to be due to EAE. As to the method:
The study used a total of 64 female C57BL/6 mice (Taconic Biosciences, 9 weeks old on Day 0). Mice were acclimated for 7 days prior to the first injection. Mice were assigned to groups in a balanced manner to achieve similar average weight across the groups at the start of the study.
Dosing of all mice was performed once on each of the days indicated in Table 6, s.c., at a volume of 0.05 mL/site, each mouse receiving injection at two sites, for a total of 0.1 mL/mouse/dosing day. IMCY-0189, IMCY-0453 or IMCY-0455 peptide total close was […] per administration.
For Saline treatment, 0.9% NaCl solution was prepared at each dosing day. Peptide's preparation was performed as described in example 3.
(§1) AUC, MMS, inflammation and demyelination, and NF-L levels quantification data were analyzed by performing Ordinary one-way ANOVA. Adjustment for multiplicity was performed using Holm-Sidak's method. Significant differences are referred as follows: *p<0.05, **p<0.01, ***p<0.001, ****p<0.0001.
EAE induction and scoring were performed as described in example 3.
EAE development was evaluated by comparing clinical EAE readouts for all groups to the negative control (Saline) group.

Data set [3] has as its system 2D2-Total CD4+ cells. Briefly: induction of lytic markers on CD4+ T cells after second stimulation. Conditions: 5 μM control peptide, 10-14 days after S1. Type of data set: cell-based, 2D2 transgenic mice. From the text:
2D2 transgenic mice (Jackson Laboratory) were used as a source of CD4+ cell. […] In this study, 2D2-Total CD4+ cells were purified using manufacture instruction (Miltenyi Biotec, 130-104-454) and antigen presenting cells were splenocyte depleted for T cell repertoire (CD90.2 depletion, Miltenyi Biotec, 130-104-454) from C57BL6 mice (compatible with 2D2-transgenic mice). Control conditions for every study were either no-peptide addition or addition of IMCY-0017, IMCY-0257 or IMCY-0069 (see example 1 and table 1) which the two later, can bind to MHCII from C57BL6-APC efficiently but not activate the TCR from 2D2-transgenic CD4+ T cells. AA controls were not used.
Immunogenic peptides comprising an MCHII T cell epitope and a classical oxidoreductase motif of sequence CxxC are known from the art to induce CD4+ cells with lytic markers called cytolytic CD4+ cells (cCD4+). Therefore, it was attempted to determine whether the peptide variants of the present invention would lead to earlier and/or stronger (percentage or intensity) lytic properties in activated Ag-specific CD4 T cells. […] The FACS results were then determined for all variants of IMCY-0189 and the measurement for the wild type peptide (IMCY-0017) was removed from all the other measurements to determine purely the effect of every modified oxidoreductase motif on the induction of lytic properties.

Data set [4] relates to Neurofilament light (NF-L) protein. In words: therapeutic EAE study, serum neurofilament levels (Simoa NF-light). Type of data set: in vivo, C57BL/6 mice. Conditions: serum on Day 28, vs Saline negative control, FIG. 10. On the procedure: On Day 28, blood was collected from all mice into gel dot activator tubes and allowed to dot at room temperature for ˜30 minutes. Blood is then centrifuged at ˜10000 g for 5 minutes. Serum was transferred into Eppendorf tubes and stored at −80° C. until shipment to Quanterix™. Serum Neurofilament light (NF-L) protein levels were quantified using Simoa® NF-light Advantage kit, a digital immunoassay for the quantitative determination of NF-L in serum, plasma and CSF. The used antibodies (Uman Diagnostics, Umeå Sweden) also cross react with murine, bovine and macaque NF-L epitopes and as such, this assay can be used for research with these species. All samples were tested in duplicate at a dilution factor of 40×.
as §1
Axonal damage was also evaluated by comparing NF-L levels for all groups to the negative control (Saline) group.

For data set [5], the system named is Experimental Auto-Immune Encephalomyelitis (EAE). Briefly: therapeutic EAE study, spinal cord histology (H&E, anti-MBP). Type of data set: in vivo, C57BL/6 mice. To be noted: spinal cord sections at end of study, vs Saline control. As to the method: At the end of the study, all mice were euthanized, and spines were collected and placed in 10% buffered formalin for histological analysis.
For each spine, one H&E stained slide and one anti-MBP stained slide were prepared and analyzed. Each slide contained a section with samples from lumbar, thoracic and cervical of spinal cord (3 samples). All analysis was performed by a pathologist blinded to the experimental groups and all clinical readouts.
Inflammatory foci of approximately 20 cells were counted in each H&E stained section. When inflammatory infiltrates consisted of more than 20 cells, an estimate was made of how many foci of 20 cells were present.
Demyelination was scored in each anti-MBP (using immunohistochemistry) stained section. In anti-MBP sections, demyelination is observed as conspicuous unstained areas in white matter tracts and is associated with presence of large vacuoles. […]
AUC, MMS, inflammation and demyelination, and NF-L levels quantification data were analyzed by performing Ordinary one-way ANOVA. […]
Histological readouts were evaluated by comparing inflammation and demyelination levels for all groups to the negative control (Saline) group.

The mark [6] stands for this setting: therapeutic, 30 μg s.c. with Alum on Days 4, 9, 14, 19, vs Saline negative control.

With “CPYC-GWYRSPFSRVVHLYR-NH2 (CPYCGWYRSPFSRVVHLYR-NH2; cysteine pairing not given here) [IMCY-0443]”, the “reduction of the peak of the disease or MMS” value in data set [1] is “not observed”.

In data set [2], `CC(C)C[C@H](NC(=O)[C@H](Cc1c[nH]cn1)NC(=O)[C@@H](NC(=O)[C@@H](NC(=O)[C@H](CCCNC(=N)N)NC(=O)[C@H](CO)NC(=O)[C@H](Cc1ccccc1)NC(=O)[C@@H]1CCCN1C(=O)[C@H](CO)NC(=O)[C@H](CCCNC(=N)N)NC(=O)[C@H](Cc1ccc(O)cc1)NC(=O)[C@H](Cc1c[nH]c2ccccc12)NC(=O)CNC(=O)[C@H](CS)NC(=O)[C@H](CCCNC(=N)N)NC(=O)[C@H](CS)NC(=O)[C@@H](N)CCCCN)C(C)C)C(C)C)C(=O)N[C@@H](Cc1ccc(O)cc1)C(=O)N[C@@H](CCCNC(=N)N)C(N)=O` [IMCY-0453, KCRC-GWYRSPFSRVVHLYR-NH2] (H-KCRCGWYRSPFSRVVHLYR-NH2) had a mice died of 1.

For the molecule `CC(C)C[C@H](NC(=O)[C@H](Cc1c[nH]cn1)NC(=O)[C@@H](NC(=O)[C@@H](NC(=O)[C@H](CCCNC(=N)N)NC(=O)[C@H](CO)NC(=O)[C@H](Cc1ccccc1)NC(=O)[C@@H]1CCCN1C(=O)[C@H](CO)NC(=O)[C@H](CCCNC(=N)N)NC(=O)[C@H](Cc1ccc(O)cc1)NC(=O)[C@H](Cc1c[nH]c2ccccc12)NC(=O)CNC(=O)[C@H](CS)NC(=O)[C@H](Cc1ccc(O)cc1)NC(=O)[C@@H]1CCCN1C(=O)[C@H](CS)NC(=O)[C@@H](N)Cc1c[nH]cn1)C(C)C)C(C)C)C(=O)N[C@@H](Cc1ccc(O)cc1)C(=O)N[C@@H](CCCNC(=N)N)C(N)=O` [IMCY-0189, HCPYC-GWYRSPFSRVVHLYR-NH2, reference compound] (H-HCPYCGWYRSPFSRVVHLYR-NH2), in data set [2], the mice died result was “No mice died”.

Turning to “HCPYC-NGGFNSNRANSSRSS-NH2 (HCPYCNGGFNSNRANSSRSS-NH2; cysteine pairing not given here) [IMCY-0257]”, the “survival of the cell culture up to second stimulation” value in data set [3] is recorded as “did not survive in the cell culture”.

With “KCRPYC-GWYRSPFSRVVHLYR-NH2 (KCRPYCGWYRSPFSRVVHLYR-NH2; cysteine pairing not given here) [IMCY-0455, KCRPYC motif variant of IMCY-0189]”, the “serum NF-L levels” value in data set [4] is listed as “statistically significant reduced”. Also, in data set [5] (FIG. 8), the “level of inflammation (inflammatory foci, H&E)” value is recorded as “statistically significant reduced level”. Further, the “level of demyelination (anti-MBP score)” value in data set [5] (FIG. 9) is on record as “statistically significant reduced level”. Also, the mice died in data set [2] came out at 1. For the same molecule, the “all clinical readouts (disease onset, end score, AUC and MMS) as compared to IMCY-0189” value in data set [2] (therapeutic, 30 μg s.c. with Alum on Days 4, 9, 14, 19, vs IMCY-0189 group) is on record as “statistically significantly improved”. For the same molecule, in data set [2] (setting [6]), the disease onset entry is listed as “statistically significantly improved” and the end score result is reported as “statistically significantly improved”. The “AUC of EAE scores” value in data set [2] (therapeutic, 30 μg s.c. with Alum on Days 4, 9, 14, 19, vs Saline negative control, FIG. 6) is “statistically significantly improved”. The “MMS of EAE scores” value in data set [2] (therapeutic, 30 μg s.c. with Alum on Days 4, 9, 14, 19, vs Saline negative control, FIG. 7) was “statistically significantly improved”.

Take “HCPYC-LALWEPKPTQAFVK-NH2 (HCPYCLALWEPKPTQAFVK-NH2; cysteine pairing not given here) [IMCY-0069]”: the “survival of the cell culture up to second stimulation” value in data set [3] is given as “did not survive in the cell culture”.
